Experimental findings from publication PMC6010128, “Structure–activity relationship investigation of tertiary amine derivatives of cinnamic acid as acetylcholinesterase and butyrylcholinesterase inhibitors: compared with that of phenylpropionic acid, sorbic acid and hexanoic acid” (Journal of Enzyme Inhibition and Medicinal Chemistry, 2018) are described below.

A short description of series [1]: pKa by pH-titration method. It counts as physicochemical. Conditions: read-out: pKa. As to the method:
pKa is determined by pH-titration method according to the report. The titration curve E vs. VT was recorded and pKa value was calculated.

Series [2] can be described thus: Log P by shake flask method. Format: physicochemical. Conditions: octanol / PBS pH = 7.4, shake flask. How it is done: Log P is defined as the logarithm of octanol–water partition coefficient. […] Ultraviolet spectrophotometry was applied to determine the concentration of compounds. Log p values were calculated based on the data in triplicate.
Another series has as its target AChE (Rattus norvegicus, UniProt P37136). The experiment in a line: biochemical. Conditions: for Selectivity for AChE: IC50 (BChE)/IC50 (AChE); for IC50: rat brain AChE, Mean ± SD, triplicate.
Another series addresses BChE (Rattus norvegicus, UniProt Q9JKC1). The experiment in a line: biochemical. Further details: species or system Sprague–Dawley rat. Conditions: rat serum BChE, Mean ± SD, triplicate.

Chain of AChE (P37136 32-614): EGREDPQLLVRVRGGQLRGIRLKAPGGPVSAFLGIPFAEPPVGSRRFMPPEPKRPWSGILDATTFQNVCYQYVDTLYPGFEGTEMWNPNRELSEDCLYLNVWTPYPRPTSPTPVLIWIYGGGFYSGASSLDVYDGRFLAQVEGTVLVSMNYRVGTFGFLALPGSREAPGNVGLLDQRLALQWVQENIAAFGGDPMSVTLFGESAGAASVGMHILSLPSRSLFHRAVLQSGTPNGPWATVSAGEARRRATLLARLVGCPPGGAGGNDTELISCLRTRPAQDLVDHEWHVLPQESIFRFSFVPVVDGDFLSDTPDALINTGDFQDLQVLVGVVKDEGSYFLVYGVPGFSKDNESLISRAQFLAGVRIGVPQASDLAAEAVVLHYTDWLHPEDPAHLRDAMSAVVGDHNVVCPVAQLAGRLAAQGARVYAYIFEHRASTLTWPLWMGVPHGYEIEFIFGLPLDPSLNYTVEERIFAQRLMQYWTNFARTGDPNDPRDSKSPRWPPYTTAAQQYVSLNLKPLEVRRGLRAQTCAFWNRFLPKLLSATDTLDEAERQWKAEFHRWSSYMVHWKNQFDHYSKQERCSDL
Chain of BChE (Q9JKC1 24-597): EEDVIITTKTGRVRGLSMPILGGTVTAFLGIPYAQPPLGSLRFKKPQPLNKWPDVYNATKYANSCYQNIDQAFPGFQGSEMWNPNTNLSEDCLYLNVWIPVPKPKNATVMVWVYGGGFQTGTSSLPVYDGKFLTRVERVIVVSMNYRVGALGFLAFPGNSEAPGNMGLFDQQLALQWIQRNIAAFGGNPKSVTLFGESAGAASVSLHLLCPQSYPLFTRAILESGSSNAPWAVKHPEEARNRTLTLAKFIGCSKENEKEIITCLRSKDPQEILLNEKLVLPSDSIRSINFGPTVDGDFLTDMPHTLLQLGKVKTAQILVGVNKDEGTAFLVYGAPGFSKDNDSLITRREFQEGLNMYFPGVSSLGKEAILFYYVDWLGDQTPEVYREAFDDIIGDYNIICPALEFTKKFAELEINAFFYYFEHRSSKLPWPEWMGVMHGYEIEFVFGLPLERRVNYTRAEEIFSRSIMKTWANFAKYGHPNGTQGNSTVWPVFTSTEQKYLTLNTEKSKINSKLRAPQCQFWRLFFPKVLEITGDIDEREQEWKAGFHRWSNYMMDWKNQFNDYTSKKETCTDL

In general, pKa refers to the negative logarithm of the acid dissociation constant. As a reminder, the logP is a log measure of how a compound divides between an organic and an aqueous phase. A higher logP goes with a more lipophilic compound. As usually defined, the IC50 is the concentration needed to halve the response being measured. Read a high IC50 as lower potency. Take `CN(C)CCOc1ccccc1NC(=O)C=Cc1ccccc1` [Compound 4d]: the pKa in series [1] was 6.96. This molecule also came in with a logP in series [2] of 2.78. In addition, at AChE, the “Selectivity for AChE” value is 0.07 and the IC50 worked out at 161 ± 2.19 µM. Besides, at BChE, the midpoint of inhibition, the IC50, lay at 11.2 ± 0.34 µM.
In the same order, the values of `CCN(CC)CCOc1ccccc1NC(=O)C=Cc1ccccc1` [Compound 4e] are 7.28, 2.81, 0.04, 197 ± 6.81 µM and 6.99 ± 0.29 µM.
In the same order, the values of `O=C(C=Cc1ccccc1)Nc1ccccc1OCCN1CCCCC1` [Compound 4f] are 6.85, 2.17, 0.01, 141 ± 7.01 µM and 1.16 ± 0.22 µM.
In the same order, the values of `O=C(C=Cc1ccccc1)Nc1ccccc1OCCN1CCCC1` [Compound 4g] are 7.33, 2.19, 0.01, 170 ± 8.49 µM and 1.56 ± 0.42 µM.
On to `CN(C)CCOc1cccc(NC(=O)C=Cc2ccccc2)c1` [Compound 5d], for which the pKa in series [1] was found to be 6.51. The logP in series [2] came to 0.96. On AChE, the “Selectivity for AChE” value was 1.30 and the concentration for half-maximal inhibition (IC50) is 20.5 ± 3.13 µM. On BChE, this molecule yielded an IC50 of 26.5 ± 0.56 µM.
In the same order, the values of `CCN(CC)CCOc1cccc(NC(=O)C=Cc2ccccc2)c1` [Compound 5e] are 7.16, 2.56, 0.86, 49.4 ± 1.91 µM and 42.5 ± 0.67 µM.
In the same order, the values of `O=C(C=Cc1ccccc1)Nc1cccc(OCCN2CCCCC2)c1` [Compound 5f] are 6.99, 1.24, 0.16, 20.5 ± 1.01 µM and 3.26 ± 0.26 µM.
In the same order, the values of `O=C(C=Cc1ccccc1)Nc1cccc(OCCN2CCCC2)c1` [Compound 5g] are 7.28, 2.28, 1.51, 8.52 ± 1.23 µM and 12.9 ± 1.18 µM.
In the case of `CN(C)CCOc1ccc(NC(=O)C=Cc2ccccc2)cc1` [Compound 6d], the pKa in series [1] is 7.18. The molecule also yielded a lipophilicity (logP) in series [2] of 1.54. For the same molecule, at AChE, the “Selectivity for AChE” value stood at 22.8 and the IC50 is 4.98 ± 0.31 µM. In addition, the midpoint of inhibition at BChE, the IC50, lay at 113 ± 1.36 µM.
For `CCN(CC)CCOc1ccc(NC(=O)C=Cc2ccccc2)cc1` [Compound 6e], the pKa in series [1] worked out at 6.97. For the same molecule, the lipophilicity (logP) in series [2] was 1.22. Also, on AChE, the “Selectivity for AChE” value is recorded as 4.16 and the half-inhibitory concentration (IC50) is 10.6 ± 0.43 µM. On BChE, the midpoint of inhibition, the IC50, lay at 44 ± 3.29 µM.
As for `O=C(C=Cc1ccccc1)Nc1ccc(OCCN2CCCCC2)cc1` [Compound 6f], the pKa in series [1] was 7.29. The same molecule came in with a logP in series [2] of 1.4. Also, the IC50 against AChE was 4.35 ± 0.36 µM; against BChE, 94.5 ± 8.74 µM.
`CN(C)CCOc1ccccc1NC(=O)CCc1ccccc1` [Compound 10d]: the pKa in series [1] was determined as 7.19. The molecule further gave a logP in series [2] of 2.14. Besides, at AChE, the “Selectivity for AChE” value came to 0.13 and half-maximal inhibition (IC50) was put at 285 ± 4.69 µM. The molecule further returned an IC50 against BChE of 36.6 ± 1.38 µM.
As for `CCN(CC)CCOc1ccccc1NC(=O)CCc1ccccc1` [Compound 10e], in series [1], the pKa stood at 7.23. Further, the logP in series [2] was 3.22. For the same molecule, the IC50 is above 500 µM on AChE and 40.1 ± 1.29 µM against BChE.
With `O=C(CCc1ccccc1)Nc1ccccc1OCCN1CCCCC1` [Compound 10f], the pKa in series [1] worked out at 7.02. In series [2], this molecule registered a logP of 1.18. For the same molecule, on AChE, the “Selectivity for AChE” value worked out at 0.002 and 250 ± 8.21 µM corresponded to half-maximal inhibition (IC50). The molecule also had an IC50 at BChE of 0.59 ± 0.09 µM.
In the same order, the values of `O=C(CCc1ccccc1)Nc1ccccc1OCCN1CCCC1` [Compound 10g] are 6.88, 1.3, 0.01, 209 ± 2.33 µM and 1.87 ± 0.16 µM.
In the same order, the values of `CN(C)CCOc1cccc(NC(=O)CCc2ccccc2)c1` [Compound 11d] are 6.45, 1.19, 0.26, 59.2 ± 3.34 µM and 15.5 ± 1.21 µM.
In the same order, the values of `CCN(CC)CCOc1cccc(NC(=O)CCc2ccccc2)c1` [Compound 11e] are 6.51, 2.23, 0.08, 102 ± 3.36 µM and 8.23 ± 0.59 µM.
For the molecule `O=C(CCc1ccccc1)Nc1cccc(OCCN2CCCCC2)c1` [Compound 11f], the pKa in series [1] came out at 6.78. Besides, the logP in series [2] stood at 3.22. For the same molecule, on AChE, the “Selectivity for AChE” value was determined as 0.93 and the IC50 amounted to 69 ± 2.64 µM. At BChE, this molecule returned an IC50 of 64 ± 1.92 µM.
Regarding `O=C(CCc1ccccc1)Nc1cccc(OCCN2CCCC2)c1` [Compound 11g], the pKa in series [1] was determined as 6.45. In series [2], this molecule had a logP of 2.58. On AChE, the “Selectivity for AChE” value is listed as 1.43 and half-maximal inhibition (IC50) was put at 58.6 ± 3.85 µM. Besides, it took 84 ± 2.12 µM to reach half-maximal inhibition on BChE (IC50).
In the same order, the values of `CN(C)CCOc1ccc(NC(=O)CCc2ccccc2)cc1` [Compound 12d] are 7.26, 2.44, 2.82, 46.8 ± 1.29 µM and 132 ± 5.21 µM.
In the same order, the values of `CCN(CC)CCOc1ccc(NC(=O)CCc2ccccc2)cc1` [Compound 12e] are 6.52, 2.58, 2.50, 84.6 ± 6.1 µM and 212 ± 4.87 µM.
In the same order, the values of `O=C(CCc1ccccc1)Nc1ccc(OCCN2CCCCC2)cc1` [Compound 12f] are 7.13, 1.82, 6.60, 34.3 ± 0.89 µM and 226 ± 5.78 µM.
As to `O=C(CCc1ccccc1)Nc1ccc(OCCN2CCCC2)cc1` [Compound 12g], the pKa in series [1] is 6.8. In series [2], this molecule gave a logP of 2.26. Further, the IC50 against AChE is 24.4 ± 0.76 µM; on BChE, 98.5 ± 1.09 µM.
As to `C/C=C/C=C/C(=O)Nc1ccccc1OCCN(C)C` [Compound 16d], in series [1], the pKa is 7.25. The logP in series [2] was determined as 0.63. Besides, on AChE, the “Selectivity for AChE” value was determined as 1.11 and the IC50 was found to be 30.7 ± 2.34 µM. Further, 34.1 ± 1.85 µM corresponded to half-maximal inhibition on BChE (IC50).
On to `C/C=C/C=C/C(=O)Nc1ccccc1OCCN(CC)CC` [Compound 16e], for which the pKa in series [1] was found to be 7.53. In series [2], this molecule returned a log partition coefficient (logP) of 2.18. For the same molecule, the IC50 at AChE was above 500 µM; at BChE, 91.8 ± 1.45 µM.
With `C/C=C/C=C/C(=O)Nc1ccccc1OCCN1CCCCC1` [Compound 16f], in series [1], the pKa is 6.86. In series [2], this molecule had a logP of 0.67. Besides, on AChE, the “Selectivity for AChE” value came to 0.16 and half-maximal inhibition (IC50) was put at 170 ± 4.11 µM. Further, half-maximal inhibition on BChE (IC50) was put at 27.7 ± 1.29 µM.
In the same order, the values of `C/C=C/C=C/C(=O)Nc1ccccc1OCCN1CCCC1` [Compound 16g] are 7.32, 0.97, 0.08, 278 ± 4.58 µM and 21.9 ± 0.99 µM.
As to `CCN(C)C(=O)Oc1cccc([C@H](C)N(C)C)c1` [Rivastigmine, reference compound], the pKa in series [1] worked out at 5.93. Also, the logP in series [2] turned out to be 1.68.
